Values of other authors, collected in US20240075184A1, “BIODEGRADABLE IMPLANTS WITH ANTICORROSIVE COATINGS” (University of Georgia Research Foundation, Inc., priority 2021, published 2024).
Like-named read-outs stand apart in the source and are kept apart here.

Key:
[1] = 0.4 M in corrosion solution, high-purity Mg
[2] = 0.4 M in corrosion solution, Mg alloy AZ31

In the case of `O=C1C=C(O)C(=O)c2ccccc21` [Lawsone, 2-hydroxy-1,4-napthoquinone], the inhibition efficiency [1] is listed as 97% and the inhibition efficiency [2] is listed as 90%.
